Results published in ChEMBL document CHEMBL1130996, “A depsipeptide fungal metabolite inhibitor of cholesteryl ester transfer protein” (Bioorg Med Chem Lett, 1998).

Legend:
[1] = target: T1, Cholesteryl ester transfer protein (Homo sapiens, UniProt P11597); assay: Compound was evaluated for inhibitory activity against cholesteryl ester transfer protein, reported from fungus; set-up: species or system Fungi
T1 sequence (P11597 whole entry): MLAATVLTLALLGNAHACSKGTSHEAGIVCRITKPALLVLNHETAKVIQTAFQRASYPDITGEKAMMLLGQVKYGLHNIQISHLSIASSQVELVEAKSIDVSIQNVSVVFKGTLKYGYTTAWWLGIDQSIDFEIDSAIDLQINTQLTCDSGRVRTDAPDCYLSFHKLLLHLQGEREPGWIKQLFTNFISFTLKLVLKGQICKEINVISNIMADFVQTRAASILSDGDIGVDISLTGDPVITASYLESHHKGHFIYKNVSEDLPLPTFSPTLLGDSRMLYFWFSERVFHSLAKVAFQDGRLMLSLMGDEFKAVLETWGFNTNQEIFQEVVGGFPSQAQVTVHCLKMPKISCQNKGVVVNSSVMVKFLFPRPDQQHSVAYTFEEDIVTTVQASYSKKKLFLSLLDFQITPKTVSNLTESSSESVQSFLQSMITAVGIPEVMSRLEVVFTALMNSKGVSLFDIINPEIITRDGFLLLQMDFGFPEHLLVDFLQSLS

[2] = target: T1, Cholesteryl ester transfer protein; assay: Compound was evaluated for inhibitory activity against cholesteryl ester transfer protein, reported from sponge
[3] = target: T1, Cholesteryl ester transfer protein; assay: Compound was evaluated for inhibitory activity against cholesteryl ester transfer protein
[4] = target: T1, Cholesteryl ester transfer protein; assay: Compound was evaluated for inhibitory activity against cholesteryl ester transfer protein; Inactive
[5] = target: T1, Cholesteryl ester transfer protein; assay: Compound was evaluated for inhibitory activity against cholesteryl ester transfer protein-SPA assay; Inactive

**Q.** Which results are given for `CCCCC(C)C1CC(=O)N[C@@H](Cc2ccccc2)C(=O)N[C@@H](C)C(=O)N[C@@H](CC(C)C)C(=O)O1` (stereo not given in full)?
**A.** IC50 [1]: 40 µM; IC50 [2]: 0.3 µM; IC50 [3]: 50 µM

**Q.** For `CCCCC(C)/C=C/C(=O)N[C@@H](Cc1ccccc1)C(=O)N[C@@H](C)C(=O)N[C@@H](CC(C)C)C(=O)O` (stereo not given in full), which IC50 [4] is on record?
**A.** Its IC50 is “Not Active”.

**Q.** With `CCCCC(C)C(O)CC(=O)N[C@@H](Cc1ccccc1)C(=O)N[C@@H](C)C(=O)N[C@@H](CC(C)C)C(=O)O` (stereo not given in full) as the compound, how does the IC50 [5] read?
**A.** Its IC50 is “Not Active”.
